Reference: patent US10648035B2, “Methods and compositions for diagnosing and treating gastric cancer” (THE JOHNS HOPKINS UNIVERSITY, priority 2012, dated 2020)

Key:
[1] = test system: claudin-11 mRNA expression in AGS gastric cancer cells; assay: Claudin-11 mRNA re-expression in AGS cells after demethylating treatment (qRT-PCR); type: cell-based; set-up: claudin-11 mRNA expression, ratio of treated vs. untreated cells: dose or concentration left out as unconfirmed
Text: FIG. 23. Claudin-11 mRNA re-expression in AGS gastric cancer cells after treatment with 5-Aza-dC. AGS is a gastric cancer cell line manifesting hypermethylation of the claudin-11 promoter in conjunction with absent claudin-11 mRNA expression (FIG. 17). Total RNAs from AGS cells before and after 5-aza-2-deoxycytidine treatment were subjected to quantitative real-time RT-PCR analysis. The Y-axis represents the expression ratio of 5-aza-dC-treated vs. untreated cells. […] This restoration of claudin-11 expression after 5-Aza-dC treatment supports our hypothesis that claudin-11 is silenced by promoter hypermethylation in GC cells.
[…] Total RNAs extracted before vs. after treatment were subjected to qRT-PCR for CLDN11.

Barx1 expression in AGS = assay: Barx1 mRNA re-expression in AGS after 5-Aza-dC treatment; type: cell-based; settings: AGS cells after treatment

Nc1ncn([C@H]2C[C@H](O)[C@@H](CO)O2)c(=O)n1 [5-Aza-dC, 5-aza-2-deoxycytidine]
CLDN11 mRNA re-expression ([1]; 1 μM, varying time intervals): CLDN11 mRNA became more re-expressed
claudin-11 mRNA expression, ratio of treated vs. untreated cells ([1]; first 72 hrs. of treatment): time-dependent increase in claudin-11 mRNA expression
Barx1 mRNA re-expression (Barx1 expression in AGS): restoration of Barx1 expression
Barx1 mRNA re-expression (Barx1 expression in AGS; listed as 5-AzaC): BARX mRNA re-expression
